Tests used:
CLK2 kinase = CLK2 kinase (Homo sapiens, UniProt P49760); assay: CLK2 kinase activity assay (Z-lyte FRET); assay type: biochemical; details: Z-lyte Ser/Thr 6 peptide, 60 μM ATP, 1 h at room temperature;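 note: FRET read-out as coumarin to fluorescein emission ratio, unphosphorylated peptide as 0% and phosphorylated peptide as 100% controls, duplicate reactions, non-linear regression fit of dose-response curves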
CLK3 kinase = CLK3 kinase (Homo sapiens, UniProt P49761); assay: CLK3 kinase activity assay (Z-lyte FRET); assay type: biochemical; details: Z-lyte Ser/Thr 18 peptide, 156 μM ATP, 1 h at room temperature;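 note: kinase activity read as coumarin/fluorescein emission ratio by FRET, unphosphorylated peptide as 0% and phosphorylated peptide as 100% control, values from non-linear regression of dose-response curves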
[1] = tested on: primary human mesenchymal stem cells (hMSCs); assay: Chondrogenesis screening using primary human mesenchymal stem cells; assay type: cell-based; details: Homo sapiens, Mesenchymal stem cells, hMSC chondrogenesis; for EC50: concentration required to induce 50% levels of chondrogenesis with TGF-β3 as positive control, read-out: Conc (nM) of 50% TGF-β3 activity; for Emax: maximum activity relative to TGF-β3 (10 ng/mL) positive control, read-out: Max. Activity as % TGF-β3 activity
How it was run: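 Derived values are EC50 for 50% chondrogenesis, maximal activity and the dose giving it. These come from nodule area in passage 3–6 primary hMSCs, expressed as fold change over the mean of 3 same-plate DMSO wells, 2–3 replicates per concentration. TGF-β3 served as positive control.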

[2] = tested on: Wnt pathway activity (SW480 colon carcinoma cells stably expressing the Sp5-Luc reporter); assay: Wnt pathway activity screening assay (Sp5-Luc reporter gene assay); details: Homo sapiens, SW480, Table 4; SW480 cells stably expressing Sp5-Luc reporter, 10-point dose-response from 10 μM, 36 to 48 hours

Sequence of CLK3 kinase (P49761 whole entry): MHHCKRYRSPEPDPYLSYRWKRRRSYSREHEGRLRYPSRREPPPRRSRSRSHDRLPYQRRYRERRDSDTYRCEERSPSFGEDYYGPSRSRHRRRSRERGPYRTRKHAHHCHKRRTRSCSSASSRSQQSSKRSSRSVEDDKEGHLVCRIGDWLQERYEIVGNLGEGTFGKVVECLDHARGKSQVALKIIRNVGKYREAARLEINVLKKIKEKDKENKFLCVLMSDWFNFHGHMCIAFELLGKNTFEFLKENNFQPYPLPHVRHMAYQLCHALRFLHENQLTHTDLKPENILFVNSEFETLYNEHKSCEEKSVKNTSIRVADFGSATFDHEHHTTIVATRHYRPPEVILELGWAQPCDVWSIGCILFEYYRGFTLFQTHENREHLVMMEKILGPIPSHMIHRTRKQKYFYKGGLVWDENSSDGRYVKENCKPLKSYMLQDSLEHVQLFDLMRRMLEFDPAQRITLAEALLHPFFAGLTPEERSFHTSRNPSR
Sequence of CLK2 kinase (P49760 whole entry): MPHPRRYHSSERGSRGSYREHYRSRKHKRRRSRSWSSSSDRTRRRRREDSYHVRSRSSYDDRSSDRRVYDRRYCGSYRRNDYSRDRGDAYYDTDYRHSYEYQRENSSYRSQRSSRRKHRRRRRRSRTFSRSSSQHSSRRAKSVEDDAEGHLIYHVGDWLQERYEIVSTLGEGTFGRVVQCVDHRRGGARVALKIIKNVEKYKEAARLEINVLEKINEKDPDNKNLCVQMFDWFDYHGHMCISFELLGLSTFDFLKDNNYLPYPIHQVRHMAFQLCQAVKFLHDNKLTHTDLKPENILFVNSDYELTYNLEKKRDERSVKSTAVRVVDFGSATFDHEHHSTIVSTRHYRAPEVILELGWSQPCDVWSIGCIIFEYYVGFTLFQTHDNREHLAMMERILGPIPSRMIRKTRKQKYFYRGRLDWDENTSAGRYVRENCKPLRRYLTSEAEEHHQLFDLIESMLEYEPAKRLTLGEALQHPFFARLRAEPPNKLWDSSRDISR

## CN1CCN(c2nccc3[nH]c(-c4n[nH]c5cnc(-c6cncc(NC(=O)c7ccccc7)c6)cc45)cc23)CC1 [compound 487]
CLK2 kinase
  EC50: 5 nM
CLK3 kinase
  EC50: 302 nM
[1]
  EC50: 10 nM
  Emax: 67%
[2]
  EC50: 2800 nM

## CN1CCN(c2ccnc3[nH]c(-c4n[nH]c5ccc(-c6cncc(NC(=O)c7ccccc7)c6)nc45)cc23)CC1 [compound 488]
CLK2 kinase
  EC50: 3 nM
CLK3 kinase
  EC50: 2530 nM
[1]
  EC50: 10 nM
  Emax: 61.8%
[2]
  EC50: 6100 nM

## CN1CCN(c2ccnc3[nH]c(-c4n[nH]c5cnc(-c6cncc(CNCC7CCCC7)c6)cc45)cc23)CC1 [compound 489]
CLK2 kinase
  EC50: 19 nM
CLK3 kinase
  EC50: 340 nM
[1]
  EC50: 300 nM
  Emax: 150%
[2]
  EC50: > 10000 nM

## CN(C)Cc1cncc(-c2cc3c(-c4cc5c(N6CCN(C)CC6)nccc5[nH]4)n[nH]c3cn2)c1 [compound 491]
CLK2 kinase
  EC50: 20 nM
CLK3 kinase
  EC50: 1940 nM
[1]
  Emax: 13.9%
[2]
  EC50: 3890 nM

## CN1CCN(c2nccc3[nH]c(-c4n[nH]c5ccc(-c6cncc(CN7CCCC7)c6)cc45)cc23)CC1 [compound 492]
CLK2 kinase
  EC50: 12 nM
CLK3 kinase
  EC50: 885 nM
[1]
  Emax: 31%
[2]
  EC50: 9380 nM

## CN1CCN(c2cccc3[nH]c(-c4n[nH]c5ccc(-c6cncc(CN7CCCCC7)c6)cc45)cc23)CC1 [compound 493]
CLK2 kinase
  EC50: 6 nM
CLK3 kinase
  EC50: 912 nM
[1]
  EC50: 100 nM
  Emax: 198%
[2]
  EC50: 4970 nM

## CN1CCN(c2nccc3[nH]c(-c4n[nH]c5ccc(-c6cncc(CN7CCCCC7)c6)nc45)cc23)CC1 [compound 496]
CLK2 kinase
  EC50: 6 nM
CLK3 kinase
  EC50: 524 nM
[1]
  EC50: 10 nM
  Emax: 70.8%
[2]
  EC50: 4160 nM

## CN1CCN(c2ccnc3[nH]c(-c4n[nH]c5ncc(-c6cn[nH]c6)cc45)cc23)CC1 [compound 497]
CLK2 kinase
  EC50: 5 nM
CLK3 kinase
  EC50: 678 nM
[1]
  Emax: 20.1%
[2]
  EC50: > 10000 nM

## CCCCC(=O)Nc1cncc(-c2ccc3[nH]nc(-c4cc5c(-c6ccoc6)cncc5[nH]4)c3c2)c1 [compound 499]
CLK2 kinase
  EC50: 3 nM
CLK3 kinase
  EC50: 42 nM
[1]
  Emax: 122%
[2]
  EC50: 915 nM

## CC(C)(C)CC(=O)Nc1cncc(-c2ccc3[nH]nc(-c4cc5c(-c6ccoc6)ccnc5[nH]4)c3c2)c1 [compound 500]
CLK2 kinase
  EC50: 12 nM
CLK3 kinase
  EC50: 117 nM
[1]
  Emax: 21.2%
[2]
  EC50: 890 nM

## O=C(CC1CCNCC1)Nc1cncc(-c2ccc3[nH]nc(-c4cc5c(-c6ccoc6)ccnc5[nH]4)c3n2)c1 [compound 501]
CLK2 kinase
  EC50: 11 nM
CLK3 kinase
  EC50: 418 nM
[1]
  EC50: 10 nM
  Emax: 102%
[2]
  EC50: > 10000 nM

## c1cc(-c2ccoc2)c2cc(-c3n[nH]c4ccc(-c5cncc(CNCC6CCCC6)c5)nc34)[nH]c2c1 [compound 502]
CLK2 kinase
  EC50: 14 nM
CLK3 kinase
  EC50: 336 nM
[1]
  Emax: 25.3%
[2]
  EC50: 3640 nM

## FC1(F)CCN(Cc2cncc(-c3cnc4[nH]nc(-c5cc6c(-c7ccoc7)cccc6[nH]5)c4c3)c2)C1 [compound 503]
CLK2 kinase
  EC50: 10 nM
CLK3 kinase
  EC50: 104 nM
[1]
  EC50: 30 nM
  Emax: 72.1%
[2]
  EC50: 1000 nM

## COc1cncc(-c2ccc3[nH]nc(-c4cc5c(-c6ccoc6)nccc5[nH]4)c3c2)c1 [compound 504]
CLK2 kinase
  EC50: 6 nM
CLK3 kinase
  EC50: 117 nM
[1]
  Emax: 35.5%
[2]
  EC50: 643 nM

## c1ncc(-c2ccc3[nH]nc(-c4cc5c(-c6ccoc6)nccc5[nH]4)c3c2)cn1 [compound 505]
CLK2 kinase
  EC50: 4 nM
CLK3 kinase
  EC50: 217 nM
[1]
  Emax: 40.2%
[2]
  EC50: 1910 nM

## CC(C)CC(=O)Nc1cncc(-c2cc3c(-c4cc5c(-c6cccs6)nccc5[nH]4)n[nH]c3cn2)c1 [compound 506]
CLK2 kinase
  EC50: 8 nM
CLK3 kinase
  EC50: 392 nM
[1]
  EC50: 10 nM
  Emax: 81.4%
[2]
  EC50: 572 nM

## O=C(Nc1cncc(-c2cnc3[nH]nc(-c4cc5c(-c6cccs6)nccc5[nH]4)c3c2)c1)C1CCC1 [compound 507]
CLK2 kinase
  EC50: 10 nM
CLK3 kinase
  EC50: 60 nM
[1]
  EC50: 100 nM
  Emax: 82.2%
[2]
  EC50: 473 nM

## c1ccc(CNCc2cncc(-c3ccc4[nH]nc(-c5cc6c(-c7cccs7)cncc6[nH]5)c4c3)c2)cc1 [compound 508]
CLK2 kinase
  EC50: 7 nM
CLK3 kinase
  EC50: 68 nM
[1]
  Emax: 57.4%
[2]
  EC50: 578 nM

## c1csc(-c2nccc3[nH]c(-c4n[nH]c5cnc(-c6cncc(CN7CCCCC7)c6)cc45)cc23)c1 [compound 509]
CLK2 kinase
  EC50: 6 nM
CLK3 kinase
  EC50: 140 nM
[1]
  EC50: 10 nM
  Emax: 59%
[2]
  EC50: 3680 nM

## c1csc(-c2ccnc3[nH]c(-c4n[nH]c5ccc(-c6cncc(OC7CCNCC7)c6)nc45)cc23)c1 [compound 510]
CLK2 kinase
  EC50: 16 nM
CLK3 kinase
  EC50: 1870 nM
[1]
  EC50: 300 nM
  Emax: 51.4%
[2]
  EC50: 3550 nM

## CN(C)CCNc1cc(F)cc(-c2cccc3[nH]c(-c4n[nH]c5cnc(-c6cncc(N)c6)cc45)cc23)c1 [compound 511]
CLK2 kinase
  EC50: 6 nM
CLK3 kinase
  EC50: 50 nM
[1]
  EC50: 100 nM
  Emax: 180%
[2]
  EC50: 407 nM

## CCCC(=O)Nc1cncc(-c2cc3c(-c4cc5c(-c6cc(F)cc(NCCN(C)C)c6)ccnc5[nH]4)n[nH]c3cn2)c1 [compound 512]
CLK2 kinase
  EC50: 14 nM
CLK3 kinase
  EC50: 94 nM
[1]
  EC50: 10 nM
  Emax: 162%
[2]
  EC50: > 10000 nM

## CN(C)CCNc1cc(F)cc(-c2ccnc3[nH]c(-c4n[nH]c5cnc(-c6cncc(NC(=O)C(C)(C)C)c6)cc45)cc23)c1 [compound 513]
CLK2 kinase
  EC50: 6 nM
CLK3 kinase
  EC50: 49 nM
[1]
  EC50: 10 nM
  Emax: 87.3%
[2]
  EC50: 386 nM

## CN(C)CCNc1cc(F)cc(-c2ccnc3[nH]c(-c4n[nH]c5ccc(-c6cncc(CN7CCCCC7)c6)nc45)cc23)c1 [compound 514]
CLK2 kinase
  EC50: 4 nM
CLK3 kinase
  EC50: 49 nM
[1]
  Emax: 48.5%
[2]
  EC50: 1270 nM

## CN(C)CCNc1cc(F)cc(-c2cccc3[nH]c(-c4n[nH]c5cnc(-c6cncc(O)c6)cc45)cc23)c1 [compound 515]
CLK2 kinase
  EC50: 5 nM
CLK3 kinase
  EC50: 109 nM
[1]
  EC50: 10 nM
  Emax: 66.4%
[2]
  EC50: 405 nM

## CN(C)CCNc1cc(F)cc(-c2cccc3[nH]c(-c4n[nH]c5ccc(-c6cncnc6)nc45)cc23)c1 [compound 516]
CLK2 kinase
  EC50: 5 nM
CLK3 kinase
  EC50: 63 nM
[1]
  EC50: 10 nM
  Emax: 181%
[2]
  EC50: 420 nM

## CCC(=O)Nc1cncc(-c2ccc3[nH]nc(-c4cc5c(-c6cc(F)cc(CNS(C)(=O)=O)c6)cncc5[nH]4)c3c2)c1 [compound 517]
CLK2 kinase
  EC50: 8 nM
CLK3 kinase
  EC50: 216 nM
[1]
  Emax: 29.4%
[2]
  EC50: 244 nM

## CCCC(=O)Nc1cncc(-c2cnc3[nH]nc(-c4cc5c(-c6cc(F)cc(CNS(C)(=O)=O)c6)cncc5[nH]4)c3c2)c1 [compound 518]
CLK2 kinase
  EC50: 7 nM
CLK3 kinase
  EC50: 39 nM
[1]
  Emax: 36.7%
[2]
  EC50: 1680 nM

## CC(C)C(=O)Nc1cncc(-c2cnc3[nH]nc(-c4cc5c(-c6cc(F)cc(CNS(C)(=O)=O)c6)cncc5[nH]4)c3c2)c1 [compound 519]
CLK2 kinase
  EC50: 18 nM
CLK3 kinase
  EC50: 236 nM
[1]
  Emax: 59.6%
[2]
  EC50: > 10000 nM

## CC(C)C(=O)Nc1cncc(-c2cc3c(-c4cc5c(-c6cc(F)cc(CNS(C)(=O)=O)c6)nccc5[nH]4)n[nH]c3cn2)c1 [compound 520]
CLK2 kinase
  EC50: 3 nM
CLK3 kinase
  EC50: 75 nM
[1]
  EC50: 30 nM
  Emax: 79.5%
[2]
  EC50: > 10000 nM

## CCCCC(=O)Nc1cncc(-c2cc3c(-c4cc5c(-c6cc(F)cc(CNS(C)(=O)=O)c6)nccc5[nH]4)n[nH]c3cn2)c1 [compound 521]
CLK2 kinase
  EC50: 9 nM
CLK3 kinase
  EC50: 776 nM
[1]
  EC50: 10 nM
  Emax: 111%
[2]
  EC50: > 10000 nM

## CC(C)CC(=O)Nc1cncc(-c2cnc3[nH]nc(-c4cc5c(-c6cc(F)cc(CNS(C)(=O)=O)c6)nccc5[nH]4)c3c2)c1 [compound 522]
CLK2 kinase
  EC50: 8 nM
CLK3 kinase
  EC50: 48 nM
[1]
  EC50: 300 nM
  Emax: 52%
[2]
  EC50: 1510 nM

## CC(C)CC(=O)Nc1cncc(-c2cnc3[nH]nc(-c4cc5c(-c6cc(F)cc(CNS(C)(=O)=O)c6)cncc5[nH]4)c3c2)c1 [compound 523]
CLK2 kinase
  EC50: 9 nM
CLK3 kinase
  EC50: 81 nM
[1]
  Emax: 45.5%
[2]
  EC50: 2510 nM

## CC(C)CC(=O)Nc1cncc(-c2cc3c(-c4cc5c(-c6cc(F)cc(CNS(C)(=O)=O)c6)cncc5[nH]4)n[nH]c3cn2)c1 [compound 524]
CLK2 kinase
  EC50: 15 nM
CLK3 kinase
  EC50: 198 nM
[1]
  Emax: 24.2%
[2]
  EC50: > 10000 nM

## CC(C)CC(=O)Nc1cncc(-c2ccc3[nH]nc(-c4cc5c(-c6cc(F)cc(CNS(C)(=O)=O)c6)nccc5[nH]4)c3n2)c1 [compound 525]
CLK2 kinase
  EC50: 8 nM
CLK3 kinase
  EC50: 38 nM
[1]
  Emax: 33.1%
[2]
  EC50: 479 nM

## CS(=O)(=O)NCc1cc(F)cc(-c2cncc3[nH]c(-c4n[nH]c5ccc(-c6cncc(NC(=O)C7CC7)c6)nc45)cc23)c1 [compound 526]
CLK2 kinase
  EC50: 4 nM
CLK3 kinase
  EC50: 140 nM
[1]
  EC50: 10 nM
  Emax: 82.9%
[2]
  EC50: 1300 nM

## CS(=O)(=O)NCc1cc(F)cc(-c2cncc3[nH]c(-c4n[nH]c5ccc(-c6cncc(NC(=O)C7CCC7)c6)cc45)cc23)c1 [compound 527]
CLK2 kinase
  EC50: 11 nM
CLK3 kinase
  EC50: 66 nM
[1]
  Emax: 14.5%
[2]
  EC50: 554 nM
